Values belong to the compound of their own block, whether it stands above or below them.
Columns and labels:
[1] = test system: human blood coagulation factor XIII; assay: optimum concentration of stabilizers: residual factor XIII activity after 60° C. for 30 minutes (Example 1); assay type: physicochemical
Description: As for the measuring methods of factor XIII activity, fibrin formation, transglutaminase activity measurement, and immunologic measurement of antigen amount can be mentioned. Herein, the dansylcadaverine method (Nishida J., et al. Thromb. Res., vol. 36 pp. 123-131 (1984)) was adopted which can determine quantitatively the active factor XIII with high accuracy. Dansylcadaverine (purchased from YATRON) is a fluorescent amine which is the substrate of factor XIII, and forms dansylcadaverine-casein complex with casein by the action of factor XIII; the complex is separated by gel-filtration after the reaction and the factor XIII activity can be determined by the fluorescence intensity of the complex. The factor XIII activity is expressed by units; one unit is the amount of factor XIII which is contained in one milliliter of normal human plasma.
Optimum concentration of the present stabilizers was investigated.
To factor XIII produced according to the recombinant DNA technology as disclosed in DE 3804890 Al and incorporated by reference herein, (adjusted to the final titer of 100 units/ml with the water for injection according to the Pharmacopoeia of Japan) was added galactose, sucrose, D-sorbitol, sodium L-glutamate, sodium L-aspartate or L-histidine, and the mixture was warmed in a hot water bath at 60° C. for 30 minutes and then the activity of factor XIII was determined. Residual activity rate (%) of factor XIII was calculated, defining as 100% factor XIII activity of the preparation wherein factor XIII solution was adjusted to a titer of 100 units/ml.

[2] = test system: factor XIII prepared by recombinant DNA technology; assay: storage stabilizer effect on factor XIII prepared by recombinant DNA technology; assay type: physicochemical, human

effective concentration of stabilizer [1]: 1.25-40 w/v %
Residual Activity Rate ([1]; additive conc. 1.25 w/v %): 86.7%
Residual Activity Rate ([1]; additive conc. 2.5 w/v %): 88.6%
Residual Activity Rate ([1]; additive conc. 5.0 w/v %): 90.0%
Residual Activity Rate ([1]; additive conc. 10 w/v %): 99.0%
Residual Activity Rate ([1]; additive conc. 15 w/v %): 100.0%
Residual Activity Rate ([1]; additive conc. 20 w/v %): 96.2%
Residual Activity Rate ([1]; additive conc. 40 w/v %): 75.7%
Compound: OC[C@H]1O[C@@](CO)(O[C@H]2O[C@H](CO)[C@@H](O)[C@H](O)[C@H]2O)[C@@H](O)[C@@H]1O [Sucrose]

Compound: OC[C@@H](O)[C@@H](O)[C@H](O)[C@@H](O)CO [D-Sorbitol]
effective concentration of stabilizer [1]: 1.25-40 w/v %
Residual Activity Rate ([1]; additive conc. 1.25 w/v %): 73.8%
Residual Activity Rate ([1]; additive conc. 2.5 w/v %): 73.9%
Residual Activity Rate ([1]; additive conc. 5.0 w/v %): 74.5%
Residual Activity Rate ([1]; additive conc. 10 w/v %): 94.0%
Residual Activity Rate ([1]; additive conc. 15 w/v %): 98.4%
Residual Activity Rate ([1]; additive conc. 20 w/v %): 96.0%
Residual Activity Rate ([1]; additive conc. 40 w/v %): 86.9%

effect as storage stabilizer (in words) [2]: ineffective
Compound: C[C@H](N)C(=O)O [alanine]

Compound: N[C@@H](CC(=O)[O-])C(=O)[O-].[Na+].[Na+] [Sodium L-aspartate, sodium L-aspartate]
Residual Activity Rate ([1]; additive conc. 0.125 w/v %): 83.3%
Residual Activity Rate ([1]; additive conc. 0.25 w/v %): 80.9%
Residual Activity Rate ([1]; additive conc. 0.5 w/v %): 93.3%
Residual Activity Rate ([1]; additive conc. 1.0 w/v %): 101.1%
Residual Activity Rate ([1]; additive conc. 2.0 w/v %): 66.5%
Residual Activity Rate ([1]; additive conc. 5.0 w/v %): 58.8%
Residual Activity Rate ([1]; additive conc. 10 w/v %): 55.4%

Compound: N[C@@H](CCC(=O)[O-])C(=O)[O-].[Na+].[Na+] [Sodium L-glutamate, sodium L-glutamate]
Residual Activity Rate ([1]; additive conc. 0.125 w/v %): 76%
Residual Activity Rate ([1]; additive conc. 0.25 w/v %): 71.1%
Residual Activity Rate ([1]; additive conc. 0.5 w/v %): 98.6%
Residual Activity Rate ([1]; additive conc. 1.0 w/v %): 92.5%
Residual Activity Rate ([1]; additive conc. 2.0 w/v %): 87.8%
Residual Activity Rate ([1]; additive conc. 5.0 w/v %): 79.4%
Residual Activity Rate ([1]; additive conc. 10 w/v %): 65.3%

effect as storage stabilizer (in words) [2]: ineffective
Compound: NC(=O)CC[C@H](N)C(=O)O [glutamine]

Compound: glucose
effect as storage stabilizer (in words) [2]: ineffective

Compound: galactose
effective concentration of stabilizer [1]: 1.25-40 w/v %

Compound: NCC(=O)O [Glycine]
effect as storage stabilizer (in words) [2]: ineffective

Residual Activity Rate ([1]; additive conc. 0.125 w/v %): 62.2%
Residual Activity Rate ([1]; additive conc. 0.25 w/v %): 71.6%
Residual Activity Rate ([1]; additive conc. 0.5 w/v %): 78.4%
Residual Activity Rate ([1]; additive conc. 1.0 w/v %): 97.4%
Residual Activity Rate ([1]; additive conc. 2.0 w/v %): 65.3%
Compound: N[C@@H](Cc1c[nH]cn1)C(=O)O [L-Histidine, L-histidine]

Compound: O=C(O)[C@@H]1C[C@@H](O)CN1 [hydroxyproline]
effect as storage stabilizer (in words) [2]: ineffective
